According to patent US8778643B2, “Methods for increasing lipid levels and producing triacylglycerols in algae” (priority 2012, dated 2014):

Columns and labels:
CDK4/cyclin D1 = CDK4/cyclin D1 (Homo sapiens, UniProt P11802); settings: CDK4/cyclin D1; cited from earlier work
[1] = system: Phaeodactylum tricornutum
Description: The nonpolar algal extracts were harvested from 500 mL cultures when indicated on growth curves, a minimum of 3 days into stationary phase. […] Cells were crushed and nonpolar lipids were extracted by sonication (Fisher Scientific Model 120 Sonic Dismembrator, ThermoFisher, San Jose) for 1 minute in chloroform, followed by chloroform-methanol extractions, washed with PBS butter, and dried under vacuum.^55-60 The crude non-polar algae extracts were then analyzed by ^1H Nuclear Magnetic Resonance (^1H NMR) for verification of TAG presence and examination of the purity of the extract (determination of level of chlorophyll). […]
After the initial weight was recorded, the nonpolar extract set aside for transesterification was dissolved in 3.0 mL of 0.6 M sulfuric acid in methanol and stirred vigorously at 60° C. for 45 minutes. […]
(§1) We developed a quick and robust method to screen if the screened compound effect fatty acid saturation levels using ^1H NMR spectroscopy. The amount of saturated fatty acids (SFA), monounsaturated fatty acids (MUFAs), and polyunsaturated fatty acids (PUFAs) was determined using peak area ratios.
(§2) Calculated based on ^1H NMR integral ratios for the proton signals for the methyl group of PUFA components vs. the methyl groups of monounsaturated and saturated components.

Nannochloris sp. [2] = experiment: Microplate assay: growth (absorbance 680 nm) and intracellular lipids (Nile Red fluorescence); format: cell-based; settings: for Nile Red Fluorescence % Increase: Nannochloris sp., compounds tested at 20 μM, initial screening, p<0.05
Description: (§3) Stock cultures were aerated by stirring with bubbling air (homemade manifold with Petco air pump, 2-4% CO2) or by orbital shaking (Thermo Scientific MAXQ 2000) at a constant speed of 150 rpm at 22±3° C. with a 16:8 hour light/dark cycle. Stocks were kept at stationary phase for use. Algae were prepared as dictated by culture center.
(§4) Compounds were selected based on reported biological activity in non-microalgae organisms. To ensure that compounds retained their quality, they were stored under advised conditions after purchasing from the manufacturer. Solutions of all assay compounds were prepared as 10 mM stock solutions by dissolving in DMSO in 2-dram amber vials and then stored in darkness −20° C. 96-well PCR plates were used to create a stock plate layout that was then transferred to the algae microplates. A plate map was used to distribute each compound to a well based on molecule name, collection number, and CAS number. For 20 μM and 200 nM assay plates, 10 mM compound stock in DMSO was diluted into plate maps of 5 mM and 50 μM assay stocks, respectively.
(§5) All materials for assay experiments were autoclaved before each use to maintain axenic algae cultures. Algae species were checked for homogeneity using a TS-100 light microscope (Nikon, Japan). […] Diluted stock solutions were made immediately prior to use for consistency and optimal plate growth. Cell density was measured on a Thermo Scientific Genesys 10S Vis Spectrophotometer (ThermoFisher, San Jose), using a 1 mL cuvette at 680 nm.
(§6) Plates were originally run in triplicate, before replicates were increased to quadruplicate, along with a separate control plate to compare growth. Due to extensive evaporation in exterior wells over time, our unique algae plate layout was designed to use the 60 interior wells out of 96 wells for the experiment. The 36 outer wells were filled with Millipore water and media to prevent evaporation and edge effects in the inner algae wells, as well as serve as blanks. The 60 wells with algae contained a total volume of 251 μL (100 μL of media+DMSO compound stock +150 μL dilute algae stock). For 20 μM and 200 nM assay plates, 10 mM compound stock in DMSO is diluted into plate maps of 5 mM and 50 μM assay stocks, respectively. […] Plates were parafilmed during growth to limit the amount of evaporation that can occur. Plates were numbered, and numerically ordered to ensure they got the same shaker space.
(§7) The shakers are kept at a constant shaking of 150 rpm. Ambient temperature is 22±3° C.

Nannochloropsis oculata [3] = system: Nannochloropsis oculata
Description: as §3, §4, §5, §6, §7

Nannochloropsis salina [4] = system: Nannochloropsis salina
Description: as §3, §4, §5, §6, §7

Nannochloris sp. [5] = experiment: 500 mL batch culture: growth, dry weight and lipid extract (gravimetric); format: cell-based; settings: for effect on growth and lipid levels: 500 mL batch culture; for Lipid productivity / Change in Lipids / Specific Growth Rate: Nannochloris sp., 500 mL culture; for Change in Lipids: gravimetric, relative to averaged control without DMSO; for Specific Growth Rate: mid-exponential growth phase
Description: (§8) Batch cultures were grown in 500 mL Pyrex media bottles with stirring and air bubbling (homemade manifold with Petco air pump, 2-4% CO2). Incoming air was sterile filtered by Polyvent 4 disposable filters (Whatman, Kent, UK). […] To minimize bacterial contamination, all equipment and materials were autoclaved and media was added to flask in a Purifier Vertical Clean bench (Labconco, Kansas City, Mo.). […] The amount of DMSO is standardized for all experiments to 0.4%.
(§9) For all compound cultures, the 2 mL DMSO stock solution was added to media (without algae) first and mixed well. Control cultures were grown without DMSO. DMSO controls consisted of 0.04-1.0% DMSO. After the addition of algae and media, the container was plugged with a bug stopper vented closure cap and mixed thoroughly. Absorbance is measured immediately for Day 0 analysis. Afterward, absorbance was measured every 1-2 days with a cuvette (1 mL volume) on the Thermo Scientific Genesys 10S V is Spectrophotometer (ThermoFisher, San Jose) at 680 nm.
(§10) Batch cultures were also repeated in triplicate and compared to a control culture grown at the same time. Algae were harvested and lipids were extracted for gravimetric analysis.
(§11) The nonpolar algal extracts were harvested from 500 mL cultures when indicated on growth curves, a minimum of 3 days into stationary phase.
(§12) Cell density was monitored by measuring absorbance at 680 nm every 1-2 days.
(§13) 500-mL cultures were harvested 6 days into stationary phase based on absorbance values. Cells were concentrated by centrifugation and lyophilization to remove water. Nonpolar lipids were extracted by sonication and solvent (chloroform-methanol and PBS buffer). […] Changes in lipid levels for batch cultures were determined by crude lipid extract mass.

Nannochloropsis salina [6] = experiment: as above; format: cell-based; settings: for effect on growth and lipid levels: 500 mL batch culture; for Lipid productivity / Lipid content / Change in Lipids / Specific Growth Rate: N. salina; for Lipid content: dried lipid extract per dry biomass; for Change in Lipids: gravimetric, relative to averaged control without DMSO; for Specific Growth Rate: mid-exponential growth phase
Description: as §8, §9, §10
Cultures were harvested at day 6 in stationary phase. Cultures were pelleted, lyophilized, and extracted side-by-side. The experiment was performed in triplicate.
The nonpolar algal extracts were harvested from 500 mL cultures when indicated on growth curves, a minimum of 3 days into stationary phase. […] Cells were crushed and nonpolar lipids were extracted by sonication (Fisher Scientific Model 120 Sonic Dismembrator, ThermoFisher, San Jose) for 1 minute in chloroform, followed by chloroform-methanol extractions, washed with PBS butter, and dried under vacuum.^55-60 The crude non-polar algae extracts were then analyzed by ^1H Nuclear Magnetic Resonance (^1H NMR) for verification of TAG presence and examination of the purity of the extract (determination of level of chlorophyll).
as §12, §13

microalgae [7] = experiment: Microplate assay (growth, Nile Red lipids), algae strain not stated; settings: microplate screening; strain not given; listed as (−)-epigallocatechin gallate
Nannochloropsis oculata [8] = experiment: 500 mL batch culture: growth, dry weight and lipid extract (gravimetric); format: cell-based; settings: for effect on growth and lipid levels: 500 mL batch culture; for Lipid productivity / Lipid content / Change in Lipids / Specific Growth Rate: 500 mL culture; for Lipid content: dried lipid extract per dry biomass; for Change in Lipids: gravimetric, relative to averaged control without DMSO; for Specific Growth Rate: mid-exponential growth phase
Description: as §8, §9, §10, §11, §12, §13

FABI = FABI (FAB1); cited from earlier work
[9] = system: Phaeodactylum tricornutum; experiment: Microplate assay: growth (absorbance 680 nm) and intracellular lipids (Nile Red fluorescence); format: cell-based
Description: as §3, §4, §5, §6, §7

Nannochloropsis oculata [10] = experiment: Lipid composition of batch culture extracts (fatty acid saturation / PUFA by 1H NMR, MALDI-TOF, GC/MS); format: cell-based; settings: for SFAs (% of total lipids) / n3 PUFAs (% of UFAs) / All other PUFAs and MUFAs (% of UFAs) / UFAs (% of total lipids): 1H NMR; for SFAs (% of total lipids): Normal 24; for n3 PUFAs (% of UFAs): Normal 37; for All other PUFAs and MUFAs (% of UFAs): Normal 63; for UFAs (% of total lipids): Normal 76
Description: The nonpolar algal extracts were harvested from 500 mL cultures when indicated on growth curves, a minimum of 3 days into stationary phase. […] Cells were crushed and nonpolar lipids were extracted by sonication (Fisher Scientific Model 120 Sonic Dismembrator, ThermoFisher, San Jose) for 1 minute in chloroform, followed by chloroform-methanol extractions, washed with PBS butter, and dried under vacuum.^55-60 The crude non-polar algae extracts were then analyzed by ^1H Nuclear Magnetic Resonance (^1H NMR) for verification of TAG presence and examination of the purity of the extract (determination of level of chlorophyll). The extracts were then divided for analysis; one part for transesterification, one part to save as crude extract, and one part for SPE separation and MALDI-TOF analysis of TAGs.
Triacylglycerols can be isolated by solid-phase extraction (SPE) with 500 mg silica SPE cartridges (Silicycle, Quebec). The nonpolar extract is dissolved in 300 μL hexanes, and loaded on the SPE cartridge primed with hexanes. A mixture of 80:20:1 hexanes/diethyl ether/acetic acid was used as mobile phase to elute the TAGs.^61 SPE removes any chlorophyll in this process. Residual polar fraction containing polar lipids and chlorophyll was obtained by elution with acetone. All extracts and TAG fractions were dried under vacuum and stored under argon in amber vials at −20° C. before spectroscopic analysis. After SPE, the purified TAG fraction was reanalyzed with ^1H NMR spectroscopy for TAG characterization.
The TOF was in Reflectron mode with laser intensity from 5500-6500 Volts. Each acquisition consisted of 2500 shots with a focus mass of 900 Da, and a scan range of m/z 400-1100. Multiple acquisition scans were performed at different laser intensities to determine optimal conditions. Samples for the MALDI-TOF were diluted to 5 mg/mL in hexane, and spotted in the fast-evaporation method in a 1:2 ratio with DHB (2,5-dihydroxybenzoic acid) as the matrix. Re-spotting with methanol allowed for the matrix and sample to mix without hexane interactions, and allowed for better crystal formation. All samples on MALDI plate were allowed to dry before MS analysis. Data was normalized to base peak in all cases.
After the initial weight was recorded, the nonpolar extract set aside for transesterification was dissolved in 3.0 mL of 0.6 M sulfuric acid in methanol and stirred vigorously at 60° C. for 45 minutes.
Initial GC/MS temperature was 50° C. and end was 200° C. over at a one hour period for optimal FAME peak separation.
Peak assignment of fatty acids and their derivatives are based on NMR spectroscopic studies of previously reported algal lipid extracts^9 and comparison to standards such as olive oil (ACROS) and fatty acid mixtures.
as §1, §2

[11] = system: Phaeodactylum tricornutum; experiment: 500 mL batch culture: growth, dry weight and lipid extract (gravimetric); format: cell-based; settings: P. tricornutum, 500 mL culture, 4 μM in water, two replicates
Description: as §8, §9, §10, §11, §12, §13

microalgae [12] = experiment: 500 mL batch culture (growth, gravimetric lipids), algae strain not stated; format: cell-based; settings: for effect on growth and lipid levels: 500 mL batch cultures (Table 30)
[13] = 200 nM, initial microplate screen, relative to control
[14] = 20 μM, initial microplate screen, relative to control
[15] = higher concentrations (>400 nM), microplate
[16] = microplate assay, multiple concentrations
[17] = 40 μM, 500 mL culture, day 6 in stationary phase
[18] = 500 mL culture, 4 μM in water, two replicates
[19] = microplate dose-response screening
[20] = 500 mL batch cultures, gravimetric (Table 30)
[21] = N. oculata, 4 nM, harvested day 6 of stationary phase, n=3

Chain of CDK4/cyclin D1 (P11802 whole entry, species assumed): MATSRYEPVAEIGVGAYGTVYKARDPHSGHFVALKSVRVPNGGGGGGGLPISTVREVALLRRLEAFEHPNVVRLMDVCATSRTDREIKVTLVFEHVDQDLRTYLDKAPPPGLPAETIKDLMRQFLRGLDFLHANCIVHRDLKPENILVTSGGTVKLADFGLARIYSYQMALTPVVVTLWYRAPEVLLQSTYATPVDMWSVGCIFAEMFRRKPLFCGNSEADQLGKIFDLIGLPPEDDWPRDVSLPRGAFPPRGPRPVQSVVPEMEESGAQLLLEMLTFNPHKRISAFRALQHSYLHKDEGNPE
Chain of CDK4/cyclin D1 (P24385 whole entry partner, species assumed): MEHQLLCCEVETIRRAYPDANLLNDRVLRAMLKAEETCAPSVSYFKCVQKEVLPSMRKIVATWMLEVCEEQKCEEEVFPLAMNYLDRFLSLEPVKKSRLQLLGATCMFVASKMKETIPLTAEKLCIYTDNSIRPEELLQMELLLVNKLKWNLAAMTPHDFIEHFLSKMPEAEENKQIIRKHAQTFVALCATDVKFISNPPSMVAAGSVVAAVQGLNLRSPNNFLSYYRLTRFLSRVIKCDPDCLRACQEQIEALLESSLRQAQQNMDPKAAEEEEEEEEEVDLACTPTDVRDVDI

In the case of COc1ccc(OC)c2c(=S)c3ccccc3[nH]c12 [CDK4 Inhibitor II NSC], the IC50 (CDK4/cyclin D1) is given as 200 nM.

For O=C([O-])O.[Na+] [sodium bicarbonate], the “effect on PUFA levels” value [1] was “increases PUFA levels”.

In the case of O=C(O[C@@H]1Cc2c(O)cc(O)cc2O[C@@H]1c1cc(O)c(O)c(O)c1)c1cc(O)c(O)c(O)c1 [EGCG, [(2R,3R)-5,7-dihydroxy-2-(3,4,5-trihydroxy-phenyl)-3,4-dihydro-2H-chromen-3-yl] 3,4,5-trihydroxybenzoate], the “Nile Red percent increase” value (Nannochloris sp. [2]; 6 nM, dose-response microplate screen) is reported as 436%, the “Nile Red percent increase” value (Nannochloris sp. [2]; 18.6 nM, dose-response microplate screen) is reported as 199% and the “Nile Red percent increase” value (Nannochloris sp. [2]; 55 nM, dose-response microplate screen) is reported as 107%. For the same molecule, the “Absorbance (percent increase)” value (Nannochloris sp. [2]; [13]) was −1.0%, the “Nile Red percent increase” value (Nannochloris sp. [2]; [13]) was 92.1% and the “Absorbance (percent increase)” value (Nannochloris sp. [2]; [14]) was “+1.9%”. The “Nile Red percent increase” value (Nannochloris sp. [2]; [14]) was 92.5%, the “Nile Red Fluorescence % Increase” value (Nannochloris sp. [2]) was 214.9% and the lipid increase (Nannochloris sp. [2]; [15]) was > 100%. The “effect on lipid production / lipid levels” value (Nannochloris sp. [2]; [16]) was “lipid production increased”, the “Nile Red Fluorescence % Increase” value (Nannochloropsis oculata [3]; N. oculata, compounds tested at 200 nM, initial screening, p<0.05) was 207.5% and the “effect on lipid production / lipid levels” value (Nannochloropsis oculata [3]; [16]) was “lipid production increased”. The “% Increase based on Nile Red Fluorescence Intensity” value (Nannochloropsis salina [4]; N. salina, 493 nM, DMSO delivery, added t=day 0) was 87%, the lipid increase (Nannochloropsis salina [4]; [15]) was > 100% and the “effect on lipid production / lipid levels” value (Nannochloropsis salina [4]; [16]) was “lipid production increased”. For the same molecule, the “effect on growth and lipid levels” value (Nannochloris sp. [5]) was “increased growth and lipid extract levels”, the Lipid productivity (Nannochloris sp. [5]; 40 nM) was 4.3 ± 0.8 mgL^−1day^−1 and the “Change in Lipids” value (Nannochloris sp. [5]; 40 nM) was 39%. The “Specific Growth Rate” value (Nannochloris sp. [5]; 40 nM) was 0.17 ± 0.03 day⁻¹, the Absorbance at harvest (Nannochloropsis salina [6]; [17]) was 1.41 ± 0.08 and the “Dry weight” value (Nannochloropsis salina [6]; [17]) was 337.40 ± 62.55 mg. For the same molecule, the “Extract Weight” value (Nannochloropsis salina [6]; [17]) was 94.77 ± 9.47 mg, the “Number of Cells” value (Nannochloropsis salina [6]; [17]) was 1.36E+09 and the “Recovered Weight” value (Nannochloropsis salina [6]; [17]) was 330.03 ± 78.14 mg. For the same molecule, the “effect on growth and lipid levels” value (Nannochloropsis salina [6]) was “increased growth and lipid extract levels”, the Lipid productivity (Nannochloropsis salina [6]; [18]) was 7.1 ± 1.2 mgL^−1day^−1 and the Lipid content (Nannochloropsis salina [6]; [18]) was 32.4 ± 0.1 % w/w. For the same molecule, the “Change in Lipids” value (Nannochloropsis salina [6]; [18]) was 46%, the “Specific Growth Rate” value (Nannochloropsis salina [6]; [18]) was 0.24 ± 0.01 day⁻¹ and the Lipid productivity (Nannochloropsis salina [6]; 500 mL culture, 40 μM) was 6.3 ± 2.2 mgL^−1day^−1. For the same molecule, the Lipid content (Nannochloropsis salina [6]; 500 mL culture, 40 μM) was 23.1 ± 10.6 % w/w, the “Change in Lipids” value (Nannochloropsis salina [6]; 500 mL culture, 40 μM) was 18% and the “Specific Growth Rate” value (Nannochloropsis salina [6]; 500 mL culture, 40 μM) was 0.22 ± 0.06 day⁻¹. The “increase in (intracellular) lipid levels, Nile Red” value (microalgae [7]) was “more than 100%”, the “effect on growth and lipid levels” value (Nannochloropsis oculata [8]) was “increased growth and lipid extract levels” and the Absorbance at harvest (Nannochloropsis oculata [8]; N. oculata, 400 nM EGCG, n=4) was 1.855 ± 0.142. The Dry weight (Nannochloropsis oculata [8]; N. oculata, 400 nM EGCG, n=4) was 290.7 ± 34.5, the “Extract Weight” value (Nannochloropsis oculata [8]; N. oculata, 400 nM EGCG, n=4) was 62.3 ± 21.6 and the Lipid productivity (Nannochloropsis oculata [8]; N. oculata, 4 μM) was 4.9 ± 1.7 mgL^−1day^−1. The Lipid content (Nannochloropsis oculata [8]; N. oculata, 4 μM) was 20.6 ± 6.9 % w/w, the “Change in Lipids” value (Nannochloropsis oculata [8]; N. oculata, 4 μM) was 41% and the “Specific Growth Rate” value (Nannochloropsis oculata [8]; N. oculata, 4 μM) was 0.17 ± 0.03 day⁻¹. The “effect on lipid levels” value (Nannochloropsis oculata [8]; batch culture, combined with sodium bicarbonate addition) was “increases lipid levels”, the IC50 (FABI) was 200 nM and the lipid increase [9, 15] was > 100%. For the same molecule, the “% Inc” value ([9]; increase of lipid production, P. tricornutum, best conc. 10 nM) was 45.03%, the “effect on lipid production / lipid levels” value [9, 16] was “lipid production increased” and the “SFAs (% of total lipids)” value (Nannochloropsis oculata [10]; 4 μM) was 57 % of total lipids. For the same molecule, the “n3 PUFAs (% of UFAs)” value (Nannochloropsis oculata [10]; 4 μM) was 65 % of UFAs, the “All other PUFAs and MUFAs (% of UFAs)” value (Nannochloropsis oculata [10]; 4 μM) was 35 % of UFAs and the “UFAs (% of total lipids)” value (Nannochloropsis oculata [10]; 4 μM) was 43 % of total lipids. The “SFAs (%)” value (Nannochloropsis oculata [10]; N. oculata, 400 nM, n=1, Normal 0 ± 1) was 10%, the “MUFAs (%)” value (Nannochloropsis oculata [10]; N. oculata, 400 nM, n=1, Normal 4 ± 7) was 5% and the “n3 PUFAs (%)” value (Nannochloropsis oculata [10]; N. oculata, 400 nM, n=1, Normal 28 ± 4) was 20%. For the same molecule, the “PUFAs (%)” value (Nannochloropsis oculata [10]; N. oculata, 400 nM, n=1, Normal 96 ± 7) was 85%, the Lipid productivity [11] was 4.4 ± 2.4 mgL^−1day^−1 and the Lipid content ([11]; dried lipid extract per dry biomass) was 17.2 ± 1.3 % w/w. For the same molecule, the “Change in Lipids” value ([11]; gravimetric, relative to averaged control without DMSO) was 6%, the “Specific Growth Rate” value ([11]; mid-exponential growth phase) was 0.19 ± 0.02 day⁻¹ and the “effect on growth and lipid levels” value (microalgae [12]) was “positive increases in growth and lipid levels”. The “increase of lipids by dry weight” value (microalgae [12]; 500 mL cultures (FIG. 19)) was > 40%.

For C=C[C@@]1(C)CC(=O)[C@]2(O)[C@@]3(C)[C@@H](O)CCC(C)(C)[C@@H]3[C@H](O)[C@H](OC(C)=O)[C@@]2(C)O1 [Forskolin, (3R,4aR,5S,6S,6aS,10S,10aR,10bS)-6,10,10b-Trihydroxy-3,4a,7,7,10a-pentamethyl-1-oxo-3-vinyldodecahydro-1H-benzo[f]chromen-5-yl acetate], the “Nile Red percent increase” value (Nannochloris sp. [2]; 13 nM, dose-response microplate screen) was 121%, the “Nile Red percent increase” value (Nannochloris sp. [2]; 41.2 nM, dose-response microplate screen) was 118% and the “Absorbance (percent increase)” value (Nannochloris sp. [2]; [13]) was −5.5%. For the same molecule, the “Nile Red percent increase” value (Nannochloris sp. [2]; [13]) was 60.6%, the “Nile Red Fluorescence % Increase” value (Nannochloris sp. [2]) was 45.3% and the “lipid increase relative to the control” value (Nannochloris sp. [2]; [19]) was ≥ 100%. For the same molecule, the “Absorbance (percent increase)” value (Nannochloropsis oculata [3]; [14]) was −17.3%, the “Nile Red percent increase” value (Nannochloropsis oculata [3]; [14]) was 50.4% and the “lipid increase relative to the control” value (Nannochloropsis oculata [3]; [19]) was ≥ 100%. The “lipid increase relative to the control” value (Nannochloropsis salina [4]; [19]) was ~40%, the “effect on growth and lipid levels” value (Nannochloris sp. [5]) was “increases in lipid production” and the “increase in lipid levels” value (Nannochloris sp. [5]; [20]) was 51%. The Lipid productivity (Nannochloris sp. [5]; 10 μM) was 4.5 ± 1.7 mgL^−1day^−1, the “Change in Lipids” value (Nannochloris sp. [5]; 10 μM) was 51% and the “Specific Growth Rate” value (Nannochloris sp. [5]; 10 μM) was 0.15 ± 0.05 day⁻¹. The “effect on growth and lipid levels” value (Nannochloropsis salina [6]) was “increases in lipid production”, the “effect on growth and lipid levels” value (Nannochloropsis oculata [8]) was “increases in lipid production” and the “increase in lipid levels” value (Nannochloropsis oculata [8]; [20]) was 84%. For the same molecule, the Absorbance at harvest (Nannochloropsis oculata [8]; [21]) was 2.10, the “Dry weight” value (Nannochloropsis oculata [8]; [21]) was 353.57 mg and the “Extract Weight” value (Nannochloropsis oculata [8]; [21]) was 88.67 mg. For the same molecule, the “Number of Cells” value (Nannochloropsis oculata [8]; [21]) was 2.46E+09, the “Recovered Weight” value (Nannochloropsis oculata [8]; [21]) was 344.90 mg and the Lipid productivity (Nannochloropsis oculata [8]; N. oculata, 4 nM) was 6.4 ± 1.2 mgL^−1day^−1. The Lipid content (Nannochloropsis oculata [8]; N. oculata, 4 nM) was 25.6 ± 1.8 % w/w, the “Change in Lipids” value (Nannochloropsis oculata [8]; N. oculata, 4 nM) was 84% and the “Specific Growth Rate” value (Nannochloropsis oculata [8]; N. oculata, 4 nM) was 0.17 ± 0.02 day⁻¹. For the same molecule, the “Absorbance (percent increase)” value [9, 13] was −1.2%, the “Nile Red percent increase” value [9, 13] was 103.6% and the “lipid increase relative to the control” value [9, 19] was ~40%. For the same molecule, the “SFAs (% of total lipids)” value (Nannochloropsis oculata [10]; 40 nM) was 59 % of total lipids, the “n3 PUFAs (% of UFAs)” value (Nannochloropsis oculata [10]; 40 nM) was 61 % of UFAs and the “All other PUFAs and MUFAs (% of UFAs)” value (Nannochloropsis oculata [10]; 40 nM) was 39 % of UFAs. For the same molecule, the “UFAs (% of total lipids)” value (Nannochloropsis oculata [10]; 40 nM) was 41 % of total lipids and the “effect on growth and lipid levels” value (microalgae [12]) was “positive increases in growth and lipid levels”.
